Data reported in patent US20020045641A1, “Multiple heteroatom containing heterocyclic ring compounds substituted with carboxylic acids and isosteres thereof” (priority 1998, published 2002).

System: dopaminergic neurons
Assay: MPTP Model of Parkinson's Disease in Mice
Format: in vivo
Conditions: recovery of TH-stained dopaminergic neurons in striatum; MPTP 30 mg/kg i.p. 5 days; test compound 4 mg/kg s.c., concurrent dosing paradigm
Procedure: MPTP lesioning of dopaminergic neurons in mice is used as an animal model of Parkinson's Disease. Four week old male CD1 white mice are dosed i.p. with 30 mg/kg of MPTP for 5 days. Test compounds (4 mg/kg), or vehicle, are administered s.c. along with the MPTP for 5 days, as well as for an additional […] following cessation of MPTP treatment. At 18 days following MPTP treatment, the animals are sacrificed and the striata dissected and perfusion-fixed. Immunostaining is performed on saggital and coronal brain sections using anti-tyrosine hydroxylase […] to quantitate survival and recovery of dopaminergic neurons. In animals treated with MPTP and vehicle, a substantial loss of functional dopaminergic terminals is observed as compared to non-lesioned animals. Lesioned animals receiving test compounds show a significant recovery of TH-stained dopaminergic neurons. This model presents quantitation for the recovery of TH-positive dopaminergic neurons in the striatum of animals receiving the compounds of the present invention. […]
Percent striatal innervation density was quantitated in brain sections with an anti-tyrosine hydroxylase immunoglobulin, which is indicative of functional dopaminergic neurons. […]

`CCC(C)(C)C(=O)C(=O)N1CCS[C@H]1C(=O)O` [Compound L, (2S) -1-(3,3-dimethyl-1,2-dioxopentyl) -3-thiazolidine-2-carboxylic acid] was tested. Which “% Recovery” value did it give?
The value was 14.0%.
